The supplement of paper PMC10307832

What was measured:
Experiment in all cases: relative viability (nuclei count vs DMSO), 5 days (fraction); higher = more cells survive
[1] = compound: C[C@]1(c2nc3c(C(N)=O)cccc3[nH]2)CCCN1 [Veliparib] + COc1cccc2cc(-c3nc([C@H]4CC[C@H](C(=O)O)CC4)n4ncnc(N)c34)[nH]c12 [OSI-027] (partner 0.5 µM)
Outline: (§1)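 Lung cancer cell lines, seeded in 1536-well plates, were treated the following day by pin tool with a single drug or with five library-drug doses (not always all listed) in √10 steps on top of a fixed anchor-drug dose. Cells were fixed and nuclei stained in one step after 5 days, and nuclei were counted. Relative viability is the nuclei count for treated wells divided by that for vehicle wells, reported as medians of duplicate plates.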

[2] = compound: COC1=CC=C(C=C1)CN2C=CC3=C2C=C(C=C3)C(=O)NO + COc1cccc2cc(-c3nc([C@H]4CC[C@H](C(=O)O)CC4)n4ncnc(N)c34)[nH]c12 [OSI-027] (partner 0.5 µM)
Outline: as §1

[3] = compound: COC1=CC=C(C=C1)CN2C=CC3=C2C=C(C=C3)C(=O)NO + Nc1ncn([C@H]2C[C@H](O)[C@@H](CO)O2)c(=O)n1 [Decitabine] (partner 2 µM)
Outline: as §1

[4] = compound: COC1=CC=C(C=C1)CN2C=CC3=C2C=C(C=C3)C(=O)NO + C[C@@H](Oc1cc(-c2cnn(C3CCNCC3)c2)cnc1N)c1c(Cl)ccc(F)c1Cl [Crizotinib] (partner 1 µM)
Outline: as §1

Q: Which relative viability ([1]; first compound 0.02 µM) does the source give for EPLC-272H here?
A: 0.227

Q: And the relative viability ([1]; first compound 0.06325 µM)?
A: 0.273

Q: And the relative viability ([1]; first compound 0.2 µM)?
A: 0.265

Q: What about the relative viability ([1]; first compound 0.6325 µM) of the same cell line?
A: 0.26

Q: And the relative viability ([1]; first compound 2 µM)?
A: 0.344

Q: What about the relative viability ([2]; first compound 0.08 µM) of the same cell line?
A: 0.223

Q: And the relative viability ([2]; first compound 0.8 µM)?
A: 0.313

Q: And the relative viability ([2]; first compound 2.53 µM)?
A: 0.257

Q: And the relative viability ([2]; first compound 8 µM)?
A: 0.267

Q: And the relative viability ([3]; first compound 0.253 µM)?
A: 0.407

Q: And the relative viability ([3]; first compound 0.8 µM)?
A: 0.385

Q: What about the relative viability ([3]; first compound 2.53 µM) of the same cell line?
A: 0.457

Q: What about the relative viability ([3]; first compound 8 µM) of the same cell line?
A: 0.378

Q: And the relative viability ([4]; first compound 0.08 µM)?
A: 0.825

Q: And the relative viability ([4]; first compound 0.253 µM)?
A: 0.906

Q: What about the relative viability ([4]; first compound 0.8 µM) of the same cell line?
A: 1.08

Q: What about the relative viability ([4]; first compound 2.53 µM) of the same cell line?
A: 0.867

Q: What about the relative viability ([4]; first compound 8 µM) of the same cell line?
A: 0.896

Q: For NCI-H1975, which relative viability ([1]; first compound 0.02 µM) is on record?
A: 0.715

Q: What about the relative viability ([1]; first compound 0.06325 µM) of the same cell line?
A: 0.674

Q: What about the relative viability ([1]; first compound 0.2 µM) of the same cell line?
A: 0.676

Q: And the relative viability ([1]; first compound 0.6325 µM)?
A: 0.677

Q: What about the relative viability ([1]; first compound 2 µM) of the same cell line?
A: 0.68

Q: And the relative viability ([2]; first compound 0.08 µM)?
A: 0.724

Q: What about the relative viability ([2]; first compound 0.253 µM) of the same cell line?
A: 0.703

Q: And the relative viability ([2]; first compound 0.8 µM)?
A: 0.742

Q: And the relative viability ([2]; first compound 2.53 µM)?
A: 0.723

Q: What about the relative viability ([2]; first compound 8 µM) of the same cell line?
A: 0.638

Q: And the relative viability ([3]; first compound 0.08 µM)?
A: 0.349

Q: And the relative viability ([3]; first compound 0.253 µM)?
A: 0.364

Q: What about the relative viability ([3]; first compound 0.8 µM) of the same cell line?
A: 0.443

Q: And the relative viability ([3]; first compound 2.53 µM)?
A: 0.456

Q: And the relative viability ([3]; first compound 8 µM)?
A: 0.388

Q: What about the relative viability ([4]; first compound 0.08 µM) of the same cell line?
A: 0.915

Q: And the relative viability ([4]; first compound 0.253 µM)?
A: 1.04

Q: And the relative viability ([4]; first compound 0.8 µM)?
A: 0.955

Q: And the relative viability ([4]; first compound 2.53 µM)?
A: 0.948

Q: And the relative viability ([4]; first compound 8 µM)?
A: 0.871

Q: With NCI-H3122 as the cell line, how does the relative viability ([1]; first compound 0.02 µM) read?
A: 0.829

Q: And the relative viability ([1]; first compound 0.06325 µM)?
A: 0.923

Q: What about the relative viability ([1]; first compound 0.2 µM) of the same cell line?
A: 0.935

Q: And the relative viability ([1]; first compound 0.6325 µM)?
A: 0.96

Q: And the relative viability ([1]; first compound 2 µM)?
A: 0.991

Q: And the relative viability ([2]; first compound 0.253 µM)?
A: 1.01

Q: And the relative viability ([2]; first compound 0.8 µM)?
A: 0.945

Q: And the relative viability ([2]; first compound 2.53 µM)?
A: 0.93

Q: What about the relative viability ([2]; first compound 8 µM) of the same cell line?
A: 0.908

Q: What about the relative viability ([3]; first compound 0.08 µM) of the same cell line?
A: 0.467

Q: And the relative viability ([3]; first compound 0.253 µM)?
A: 0.479

Q: And the relative viability ([3]; first compound 0.8 µM)?
A: 0.484

Q: And the relative viability ([3]; first compound 2.53 µM)?
A: 0.468

Q: And the relative viability ([3]; first compound 8 µM)?
A: 0.386

Q: And the relative viability ([4]; first compound 0.08 µM)?
A: 0.266

Q: And the relative viability ([4]; first compound 0.253 µM)?
A: 0.275

Q: What about the relative viability ([4]; first compound 0.8 µM) of the same cell line?
A: 0.292

Q: And the relative viability ([4]; first compound 2.53 µM)?
A: 0.317

Q: What about the relative viability ([4]; first compound 8 µM) of the same cell line?
A: 0.284

Q: Which results are given for NCI-H1650?
A: relative viability ([1]; first compound 0.06325 µM): 0.501; relative viability ([1]; first compound 0.2 µM): 0.691; relative viability ([1]; first compound 0.6325 µM): 0.502; relative viability ([1]; first compound 2 µM): 0.561; relative viability ([2]; first compound 0.08 µM): 0.586; relative viability ([2]; first compound 0.253 µM): 0.682; relative viability ([2]; first compound 0.8 µM): 0.714; relative viability ([2]; first compound 2.53 µM): 0.568; relative viability ([2]; first compound 8 µM): 0.542; relative viability ([3]; first compound 0.08 µM): 0.358; relative viability ([3]; first compound 0.253 µM): 0.407; relative viability ([3]; first compound 0.8 µM): 0.423; relative viability ([3]; first compound 2.53 µM): 0.392; relative viability ([3]; first compound 8 µM): 0.328; relative viability ([4]; first compound 0.08 µM): 0.902; relative viability ([4]; first compound 0.253 µM): 0.982; relative viability ([4]; first compound 0.8 µM): 1.05; relative viability ([4]; first compound 2.53 µM): 0.915; relative viability ([4]; first compound 8 µM): 0.693

Q: How did the relative viability ([1]; first compound 0.02 µM) turn out when PC-14 was run?
A: 0.292

Q: What about the relative viability ([1]; first compound 0.06325 µM) of the same cell line?
A: 0.774

Q: And the relative viability ([1]; first compound 0.2 µM)?
A: 0.82

Q: What about the relative viability ([1]; first compound 0.6325 µM) of the same cell line?
A: 0.743

Q: And the relative viability ([1]; first compound 2 µM)?
A: 0.866

Q: And the relative viability ([2]; first compound 0.08 µM)?
A: 0.89

Q: And the relative viability ([2]; first compound 0.253 µM)?
A: 0.87

Q: What about the relative viability ([2]; first compound 0.8 µM) of the same cell line?
A: 0.739

Q: And the relative viability ([2]; first compound 2.53 µM)?
A: 0.857

Q: And the relative viability ([2]; first compound 8 µM)?
A: 0.658

Q: What about the relative viability ([3]; first compound 0.08 µM) of the same cell line?
A: 0.212

Q: And the relative viability ([3]; first compound 0.253 µM)?
A: 0.259

Q: What about the relative viability ([3]; first compound 0.8 µM) of the same cell line?
A: 0.198

Q: And the relative viability ([3]; first compound 2.53 µM)?
A: 0.223

Q: And the relative viability ([3]; first compound 8 µM)?
A: 0.244

Q: What about the relative viability ([4]; first compound 0.08 µM) of the same cell line?
A: 0.675

Q: And the relative viability ([4]; first compound 0.253 µM)?
A: 0.898

Q: What about the relative viability ([4]; first compound 0.8 µM) of the same cell line?
A: 0.908

Q: What about the relative viability ([4]; first compound 2.53 µM) of the same cell line?
A: 0.924

Q: What about the relative viability ([4]; first compound 8 µM) of the same cell line?
A: 0.809

Q: How did the relative viability ([1]; first compound 0.02 µM) turn out when COR-L 105 was run?
A: 0.462

Q: What about the relative viability ([1]; first compound 0.06325 µM) of the same cell line?
A: 0.715

Q: What about the relative viability ([1]; first compound 0.2 µM) of the same cell line?
A: 0.651

Q: And the relative viability ([1]; first compound 0.6325 µM)?
A: 0.626

Q: And the relative viability ([1]; first compound 2 µM)?
A: 0.654

Q: And the relative viability ([2]; first compound 0.08 µM)?
A: 0.524

Q: What about the relative viability ([2]; first compound 0.253 µM) of the same cell line?
A: 0.738

Q: And the relative viability ([2]; first compound 0.8 µM)?
A: 0.753

Q: What about the relative viability ([2]; first compound 2.53 µM) of the same cell line?
A: 0.626

Q: And the relative viability ([2]; first compound 8 µM)?
A: 0.445

Q: And the relative viability ([3]; first compound 0.08 µM)?
A: 0.515

Q: And the relative viability ([3]; first compound 0.253 µM)?
A: 0.618

Q: What about the relative viability ([3]; first compound 0.8 µM) of the same cell line?
A: 0.752

Q: What about the relative viability ([3]; first compound 2.53 µM) of the same cell line?
A: 0.601

Q: And the relative viability ([3]; first compound 8 µM)?
A: 0.604

Q: What about the relative viability ([4]; first compound 0.253 µM) of the same cell line?
A: 0.847

Q: What about the relative viability ([4]; first compound 0.8 µM) of the same cell line?
A: 0.714

Q: What about the relative viability ([4]; first compound 2.53 µM) of the same cell line?
A: 0.775

Q: And the relative viability ([4]; first compound 8 µM)?
A: 0.434

Q: Which results are given for LU99A?
A: relative viability ([1]; first compound 0.02 µM): 0.297; relative viability ([1]; first compound 0.06325 µM): 0.303; relative viability ([1]; first compound 0.2 µM): 0.27; relative viability ([1]; first compound 0.6325 µM): 0.266; relative viability ([1]; first compound 2 µM): 0.323; relative viability ([2]; first compound 0.253 µM): 0.326; relative viability ([2]; first compound 0.8 µM): 0.295; relative viability ([2]; first compound 2.53 µM): 0.259; relative viability ([2]; first compound 8 µM): 0.258; relative viability ([3]; first compound 0.253 µM): 0.959; relative viability ([3]; first compound 0.8 µM): 0.952; relative viability ([3]; first compound 2.53 µM): 0.843; relative viability ([3]; first compound 8 µM): 0.911; relative viability ([4]; first compound 0.253 µM): 0.573; relative viability ([4]; first compound 0.8 µM): 0.541; relative viability ([4]; first compound 2.53 µM): 0.562; relative viability ([4]; first compound 8 µM): 0.553

Q: HCC-78 was tested. Which relative viability ([1]; first compound 0.02 µM) did it give?
A: 0.4

Q: And the relative viability ([1]; first compound 0.06325 µM)?
A: 0.364

Q: And the relative viability ([1]; first compound 0.2 µM)?
A: 0.339

Q: What about the relative viability ([1]; first compound 0.6325 µM) of the same cell line?
A: 0.402

Q: And the relative viability ([1]; first compound 2 µM)?
A: 0.423

Q: And the relative viability ([2]; first compound 0.08 µM)?
A: 0.4

Q: And the relative viability ([2]; first compound 0.253 µM)?
A: 0.344

Q: And the relative viability ([2]; first compound 0.8 µM)?
A: 0.341

Q: What about the relative viability ([2]; first compound 2.53 µM) of the same cell line?
A: 0.355

Q: What about the relative viability ([2]; first compound 8 µM) of the same cell line?
A: 0.366

Q: And the relative viability ([3]; first compound 0.08 µM)?
A: 0.768

Q: And the relative viability ([3]; first compound 0.253 µM)?
A: 0.643

Q: What about the relative viability ([3]; first compound 0.8 µM) of the same cell line?
A: 0.74

Q: And the relative viability ([3]; first compound 2.53 µM)?
A: 0.702

Q: And the relative viability ([3]; first compound 8 µM)?
A: 0.521

Q: What about the relative viability ([4]; first compound 0.253 µM) of the same cell line?
A: 0.373

Q: What about the relative viability ([4]; first compound 0.8 µM) of the same cell line?
A: 0.345

Q: And the relative viability ([4]; first compound 2.53 µM)?
A: 0.342

Q: What about the relative viability ([4]; first compound 8 µM) of the same cell line?
A: 0.344
